Results as given in paper PMC12670405, “Second-Generation AURKA-Targeting PROTACs: Structural Optimization toward in Vivo Degradation in Neuroblastoma” (Journal of Medicinal Chemistry, 2025).

Experiments:
Assay in all cases: KINOMEscan scanMAX
Format in all cases: binding
Details in all cases: read-out: Percent Control
[1] = molecular target: T1, ABL1(Y253F)-phosphorylated (Homo sapiens, UniProt P00519, Y253F)
T1 construct: purchased Eurofins Discovery (DiscoverX KINOMEscan scanMAX)
Protocol: (§1) The kinome-wide binding assay was performed by Eurofins Discovery using the scanMAX screening platform. More information can be found on the Eurofins Discovery Web site.

[2] = molecular target: T2, ACVR1 (Homo sapiens, UniProt Q04771)
T2 construct: purchased Eurofins Discovery (DiscoverX KINOMEscan scanMAX)
Protocol: as §1

[3] = molecular target: T3, ASK2 (Homo sapiens, UniProt O95382)
T3 construct: purchased Eurofins Discovery (DiscoverX KINOMEscan scanMAX)
Protocol: as §1

[4] = molecular target: T4, BLK (Homo sapiens, UniProt P51451)
T4 construct: purchased Eurofins Discovery (DiscoverX KINOMEscan scanMAX)
Protocol: as §1

[5] = molecular target: T5, BMPR1A (Homo sapiens, UniProt P36894)
T5 construct: purchased Eurofins Discovery (DiscoverX KINOMEscan scanMAX)
Protocol: as §1

[6] = molecular target: T6, BRSK1 (Homo sapiens, UniProt Q8TDC3)
T6 construct: purchased Eurofins Discovery (DiscoverX KINOMEscan scanMAX)
Protocol: as §1

[7] = molecular target: T7, CDK11 (Homo sapiens, UniProt Q9BWU1)
T7 construct: purchased Eurofins Discovery (DiscoverX KINOMEscan scanMAX)
Protocol: as §1

[8] = molecular target: T8, CSF1R (Homo sapiens, UniProt P07333)
T8 construct: purchased Eurofins Discovery (DiscoverX KINOMEscan scanMAX)
Protocol: as §1

[9] = molecular target: T9, CTK (Homo sapiens, UniProt P42679)
T9 construct: purchased Eurofins Discovery (DiscoverX KINOMEscan scanMAX)
Protocol: as §1

[10] = molecular target: T10, DLK (Homo sapiens, UniProt Q12852)
T10 construct: purchased Eurofins Discovery (DiscoverX KINOMEscan scanMAX)
Protocol: as §1

[11] = molecular target: T11, EGFR(S752-I759del) (Homo sapiens, UniProt P00533, DEL752-759)
T11 construct: purchased Eurofins Discovery (DiscoverX KINOMEscan scanMAX)
Protocol: as §1

[12] = molecular target: T12, ERK1 (Homo sapiens, UniProt P27361)
T12 construct: purchased Eurofins Discovery (DiscoverX KINOMEscan scanMAX)
Protocol: as §1

[13] = molecular target: T13, FLT1 (Homo sapiens, UniProt P17948)
T13 construct: purchased Eurofins Discovery (DiscoverX KINOMEscan scanMAX)
Protocol: as §1

[14] = molecular target: T14, KIT(V559D,V654A) (Homo sapiens, UniProt P10721, V559D/V654A)
T14 construct: purchased Eurofins Discovery (DiscoverX KINOMEscan scanMAX)
Protocol: as §1

[15] = molecular target: T15, LOK (Homo sapiens, UniProt O94804)
T15 construct: purchased Eurofins Discovery (DiscoverX KINOMEscan scanMAX)
Protocol: as §1

[16] = molecular target: T16, MAP3K1 (Homo sapiens, UniProt Q13233)
T16 construct: purchased Eurofins Discovery (DiscoverX KINOMEscan scanMAX)
Protocol: as §1

[17] = molecular target: T17, MAP3K4 (Homo sapiens, UniProt Q9Y6R4)
T17 construct: purchased Eurofins Discovery (DiscoverX KINOMEscan scanMAX)
Protocol: as §1

[18] = molecular target: T18, MEK6 (Homo sapiens, UniProt P52564)
T18 construct: purchased Eurofins Discovery (DiscoverX KINOMEscan scanMAX)
Protocol: as §1

[19] = molecular target: T19, MINK (Homo sapiens, UniProt Q8N4C8)
T19 construct: purchased Eurofins Discovery (DiscoverX KINOMEscan scanMAX)
Protocol: as §1

[20] = molecular target: T20, MYLK (Homo sapiens, UniProt Q15746)
T20 construct: purchased Eurofins Discovery (DiscoverX KINOMEscan scanMAX)
Protocol: as §1

[21] = molecular target: T21, NDR1 (Homo sapiens, UniProt Q15208)
T21 construct: purchased Eurofins Discovery (DiscoverX KINOMEscan scanMAX)
Protocol: as §1

[22] = molecular target: T22, NEK11 (Homo sapiens, UniProt Q8NG66)
T22 construct: purchased Eurofins Discovery (DiscoverX KINOMEscan scanMAX)
Protocol: as §1

[23] = molecular target: T23, PAK1 (Homo sapiens, UniProt Q13153)
T23 construct: purchased Eurofins Discovery (DiscoverX KINOMEscan scanMAX)
Protocol: as §1

[24] = molecular target: T24, PCTK2 (Homo sapiens, UniProt Q00537)
T24 construct: purchased Eurofins Discovery (DiscoverX KINOMEscan scanMAX)
Protocol: as §1

[25] = molecular target: T25, PIK3CA(C420R) (Homo sapiens, UniProt P42336, C420R)
T25 construct: purchased Eurofins Discovery (DiscoverX KINOMEscan scanMAX)
Protocol: as §1

[26] = molecular target: T26, PIK3CA(Q546K) (Homo sapiens, UniProt P42336, Q546K)
T26 construct: purchased Eurofins Discovery (DiscoverX KINOMEscan scanMAX)
Protocol: as §1

[27] = molecular target: T27, PIK3CG (Homo sapiens, UniProt P48736)
T27 construct: purchased Eurofins Discovery (DiscoverX KINOMEscan scanMAX)
Protocol: as §1

[28] = molecular target: T28, PRKD3 (Homo sapiens, UniProt O94806)
T28 construct: purchased Eurofins Discovery (DiscoverX KINOMEscan scanMAX)
Protocol: as §1

[29] = molecular target: T29, ROCK1 (Homo sapiens, UniProt Q13464)
T29 construct: purchased Eurofins Discovery (DiscoverX KINOMEscan scanMAX)
Protocol: as §1

[30] = molecular target: T30, RPS6KA5(Kin.Dom.1-N-terminal) (Homo sapiens, UniProt O75582)
T30 construct: RPS6KA5(Kin.Dom.1-N-terminal); purchased Eurofins Discovery (DiscoverX KINOMEscan scanMAX)
Protocol: as §1

[31] = molecular target: T31, RSK3(Kin.Dom.2-C-terminal) (Homo sapiens, UniProt Q15349)
T31 construct: RSK3(Kin.Dom.2-C-terminal); purchased Eurofins Discovery (DiscoverX KINOMEscan scanMAX)
Protocol: as §1

[32] = molecular target: T32, TRKC (Homo sapiens, UniProt Q16288)
T32 construct: purchased Eurofins Discovery (DiscoverX KINOMEscan scanMAX)
Protocol: as §1

[33] = molecular target: T33, VPS34 (Homo sapiens, UniProt Q8NEB9)
T33 construct: purchased Eurofins Discovery (DiscoverX KINOMEscan scanMAX)
Protocol: as §1

T31 sequence (Q15349 389-733 limits assumed): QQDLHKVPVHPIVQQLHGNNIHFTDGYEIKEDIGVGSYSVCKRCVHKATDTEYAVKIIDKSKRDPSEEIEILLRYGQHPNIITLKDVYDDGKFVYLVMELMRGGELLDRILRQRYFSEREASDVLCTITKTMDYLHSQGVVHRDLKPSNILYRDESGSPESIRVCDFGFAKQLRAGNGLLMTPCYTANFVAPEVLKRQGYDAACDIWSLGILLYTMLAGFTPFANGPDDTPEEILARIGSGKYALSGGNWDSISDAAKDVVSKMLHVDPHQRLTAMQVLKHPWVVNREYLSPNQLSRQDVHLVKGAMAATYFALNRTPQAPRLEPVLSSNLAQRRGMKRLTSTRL
T17 sequence (Q9Y6R4 whole entry): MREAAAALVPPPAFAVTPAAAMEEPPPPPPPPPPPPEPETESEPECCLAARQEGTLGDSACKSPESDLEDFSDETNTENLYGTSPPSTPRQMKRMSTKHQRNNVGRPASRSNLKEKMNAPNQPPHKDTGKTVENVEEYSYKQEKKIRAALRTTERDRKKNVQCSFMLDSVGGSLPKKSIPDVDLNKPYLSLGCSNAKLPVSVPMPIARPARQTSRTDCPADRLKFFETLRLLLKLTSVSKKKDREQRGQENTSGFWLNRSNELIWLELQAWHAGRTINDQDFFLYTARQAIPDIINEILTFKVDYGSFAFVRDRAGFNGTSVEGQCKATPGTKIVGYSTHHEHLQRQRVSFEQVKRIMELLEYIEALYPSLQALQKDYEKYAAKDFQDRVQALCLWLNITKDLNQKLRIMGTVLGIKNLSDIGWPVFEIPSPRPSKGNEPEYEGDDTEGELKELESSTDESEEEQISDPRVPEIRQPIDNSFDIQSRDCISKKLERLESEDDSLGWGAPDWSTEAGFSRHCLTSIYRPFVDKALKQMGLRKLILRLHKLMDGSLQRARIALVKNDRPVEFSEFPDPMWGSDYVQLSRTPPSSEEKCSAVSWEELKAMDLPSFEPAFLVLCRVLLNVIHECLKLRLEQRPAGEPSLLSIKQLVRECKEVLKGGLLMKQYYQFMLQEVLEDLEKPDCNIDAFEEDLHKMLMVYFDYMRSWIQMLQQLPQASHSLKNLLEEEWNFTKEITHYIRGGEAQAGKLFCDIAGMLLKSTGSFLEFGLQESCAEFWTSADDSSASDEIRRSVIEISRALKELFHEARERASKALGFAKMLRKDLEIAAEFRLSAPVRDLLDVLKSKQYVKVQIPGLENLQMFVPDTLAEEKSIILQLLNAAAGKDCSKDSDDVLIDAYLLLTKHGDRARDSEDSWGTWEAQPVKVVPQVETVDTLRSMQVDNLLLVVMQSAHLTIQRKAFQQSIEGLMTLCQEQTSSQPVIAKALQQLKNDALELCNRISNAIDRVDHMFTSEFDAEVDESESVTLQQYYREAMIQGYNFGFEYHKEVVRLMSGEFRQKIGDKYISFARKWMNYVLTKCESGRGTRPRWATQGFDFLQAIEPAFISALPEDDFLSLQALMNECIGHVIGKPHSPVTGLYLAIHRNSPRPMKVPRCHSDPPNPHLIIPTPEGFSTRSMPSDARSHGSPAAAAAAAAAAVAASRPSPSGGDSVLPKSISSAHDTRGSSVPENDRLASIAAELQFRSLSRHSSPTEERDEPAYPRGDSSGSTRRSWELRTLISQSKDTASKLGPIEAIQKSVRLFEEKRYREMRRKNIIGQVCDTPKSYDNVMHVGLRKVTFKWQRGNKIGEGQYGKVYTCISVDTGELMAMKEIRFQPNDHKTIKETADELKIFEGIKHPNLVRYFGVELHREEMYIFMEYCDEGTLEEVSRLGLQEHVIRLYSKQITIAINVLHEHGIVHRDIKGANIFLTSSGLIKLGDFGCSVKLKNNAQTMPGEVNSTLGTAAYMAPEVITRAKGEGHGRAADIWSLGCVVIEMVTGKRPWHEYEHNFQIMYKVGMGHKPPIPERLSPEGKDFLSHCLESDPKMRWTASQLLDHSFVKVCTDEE
T12 sequence (P27361 whole entry): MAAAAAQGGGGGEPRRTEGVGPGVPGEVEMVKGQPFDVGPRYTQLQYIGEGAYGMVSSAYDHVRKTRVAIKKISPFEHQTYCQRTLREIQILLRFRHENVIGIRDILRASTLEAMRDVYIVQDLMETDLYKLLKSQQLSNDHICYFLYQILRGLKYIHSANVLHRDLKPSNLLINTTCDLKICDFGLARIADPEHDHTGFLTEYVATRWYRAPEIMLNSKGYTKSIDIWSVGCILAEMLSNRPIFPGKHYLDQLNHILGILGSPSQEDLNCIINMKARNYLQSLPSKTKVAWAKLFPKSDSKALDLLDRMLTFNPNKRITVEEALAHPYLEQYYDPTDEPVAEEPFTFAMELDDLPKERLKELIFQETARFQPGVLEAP
T24 sequence (Q00537 whole entry): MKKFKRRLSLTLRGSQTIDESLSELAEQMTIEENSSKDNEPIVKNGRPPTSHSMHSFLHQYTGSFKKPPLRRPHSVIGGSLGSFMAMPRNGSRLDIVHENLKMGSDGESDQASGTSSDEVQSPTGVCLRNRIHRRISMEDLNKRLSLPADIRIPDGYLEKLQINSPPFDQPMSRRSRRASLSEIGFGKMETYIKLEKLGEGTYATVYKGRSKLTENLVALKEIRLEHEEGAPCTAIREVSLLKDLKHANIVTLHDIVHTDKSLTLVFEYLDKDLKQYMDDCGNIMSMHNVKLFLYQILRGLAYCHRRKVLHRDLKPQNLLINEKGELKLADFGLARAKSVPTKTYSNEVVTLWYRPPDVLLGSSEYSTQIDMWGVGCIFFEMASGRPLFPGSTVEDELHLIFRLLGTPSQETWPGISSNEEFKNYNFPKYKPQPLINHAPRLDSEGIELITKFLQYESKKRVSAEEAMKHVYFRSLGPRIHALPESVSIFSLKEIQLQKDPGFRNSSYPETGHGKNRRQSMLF
T16 sequence (Q13233 whole entry): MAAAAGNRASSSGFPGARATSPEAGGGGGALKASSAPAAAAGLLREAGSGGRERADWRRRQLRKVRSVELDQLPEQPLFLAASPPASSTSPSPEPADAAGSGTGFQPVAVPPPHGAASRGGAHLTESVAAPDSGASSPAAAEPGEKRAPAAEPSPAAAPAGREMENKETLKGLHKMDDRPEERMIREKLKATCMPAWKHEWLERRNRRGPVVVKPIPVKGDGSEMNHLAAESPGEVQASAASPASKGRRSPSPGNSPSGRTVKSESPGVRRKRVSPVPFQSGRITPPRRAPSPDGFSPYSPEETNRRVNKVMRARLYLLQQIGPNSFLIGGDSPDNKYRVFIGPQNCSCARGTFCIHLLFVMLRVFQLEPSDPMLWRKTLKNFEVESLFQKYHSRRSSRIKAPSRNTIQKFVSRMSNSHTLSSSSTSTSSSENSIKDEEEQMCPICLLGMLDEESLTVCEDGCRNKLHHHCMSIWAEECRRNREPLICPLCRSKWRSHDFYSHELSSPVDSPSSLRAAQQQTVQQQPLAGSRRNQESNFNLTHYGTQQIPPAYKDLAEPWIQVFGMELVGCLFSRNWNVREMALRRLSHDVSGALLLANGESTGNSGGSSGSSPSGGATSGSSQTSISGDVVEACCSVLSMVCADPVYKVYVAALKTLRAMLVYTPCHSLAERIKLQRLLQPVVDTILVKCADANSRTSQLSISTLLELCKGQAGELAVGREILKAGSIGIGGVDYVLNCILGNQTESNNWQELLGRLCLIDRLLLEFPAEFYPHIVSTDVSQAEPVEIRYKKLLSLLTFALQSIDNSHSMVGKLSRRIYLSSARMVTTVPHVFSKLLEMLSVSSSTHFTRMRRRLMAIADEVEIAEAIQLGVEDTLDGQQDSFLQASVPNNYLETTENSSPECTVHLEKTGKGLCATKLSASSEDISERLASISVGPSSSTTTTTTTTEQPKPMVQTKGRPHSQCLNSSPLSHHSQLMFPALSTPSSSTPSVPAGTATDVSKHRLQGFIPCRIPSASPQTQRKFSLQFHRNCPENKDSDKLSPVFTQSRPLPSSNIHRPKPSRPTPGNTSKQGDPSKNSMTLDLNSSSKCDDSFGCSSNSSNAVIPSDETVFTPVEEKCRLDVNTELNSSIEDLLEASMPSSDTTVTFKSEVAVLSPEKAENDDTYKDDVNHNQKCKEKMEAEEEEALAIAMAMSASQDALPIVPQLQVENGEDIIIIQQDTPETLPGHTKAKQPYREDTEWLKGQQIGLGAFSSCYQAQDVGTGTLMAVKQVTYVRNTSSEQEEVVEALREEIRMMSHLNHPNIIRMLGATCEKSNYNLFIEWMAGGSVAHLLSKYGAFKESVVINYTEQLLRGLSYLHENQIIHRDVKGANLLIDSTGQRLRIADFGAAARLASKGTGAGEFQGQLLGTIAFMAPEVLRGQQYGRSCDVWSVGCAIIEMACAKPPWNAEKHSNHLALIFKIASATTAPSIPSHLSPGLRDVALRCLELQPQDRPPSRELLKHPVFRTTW
T9 sequence (P42679 whole entry): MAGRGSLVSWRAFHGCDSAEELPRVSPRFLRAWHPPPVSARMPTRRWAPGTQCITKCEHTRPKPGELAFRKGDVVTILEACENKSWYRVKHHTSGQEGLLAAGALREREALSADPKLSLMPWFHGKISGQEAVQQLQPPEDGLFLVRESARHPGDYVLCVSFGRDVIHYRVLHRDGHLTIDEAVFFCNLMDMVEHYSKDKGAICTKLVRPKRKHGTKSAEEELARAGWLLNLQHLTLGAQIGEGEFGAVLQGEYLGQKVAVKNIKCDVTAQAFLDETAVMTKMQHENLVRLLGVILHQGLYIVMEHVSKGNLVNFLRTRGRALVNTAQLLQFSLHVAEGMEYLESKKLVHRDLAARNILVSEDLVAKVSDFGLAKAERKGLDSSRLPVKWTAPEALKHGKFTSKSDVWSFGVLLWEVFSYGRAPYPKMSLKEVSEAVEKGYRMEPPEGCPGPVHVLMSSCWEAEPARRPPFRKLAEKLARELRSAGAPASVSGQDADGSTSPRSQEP

Cc1cc(Nc2ccc(F)c(CC3(C(=O)N4CCC(F)(CN5CCN(c6ccc(N7CCC(=O)NC7=O)cn6)CC5)CC4)CCN(Cc4cccc(Cl)c4F)CC3)n2)n[nH]1 [SK5527]
remaining binding at 0.1 µM ([1]; 100 nM): 63%
remaining binding at 1 µM ([1]; 1000 nM): 36%
remaining binding at 0.1 µM ([2]; 100 nM): 68%
remaining binding at 1 µM ([2]; 1000 nM): 70%
remaining binding at 0.1 µM ([3]; 100 nM): 62%
remaining binding at 1 µM ([3]; 1000 nM): 56%
remaining binding at 0.1 µM ([4]; 100 nM): 97%
remaining binding at 1 µM ([4]; 1000 nM): 45%
remaining binding at 0.1 µM ([5]; 100 nM): 100%
remaining binding at 1 µM ([5]; 1000 nM): 100%
remaining binding at 0.1 µM ([6]; 100 nM): 100%
remaining binding at 1 µM ([6]; 1000 nM): 98%
remaining binding at 0.1 µM ([7]; 100 nM): 92%
remaining binding at 1 µM ([7]; 1000 nM): 85%
remaining binding at 0.1 µM ([8]; 100 nM): 97%
remaining binding at 1 µM ([8]; 1000 nM): 90%
remaining binding at 0.1 µM ([9]; 100 nM): 100%
remaining binding at 1 µM ([9]; 1000 nM): 91%
remaining binding at 0.1 µM ([10]; 100 nM): 71%
remaining binding at 1 µM ([10]; 1000 nM): 55%
remaining binding at 0.1 µM ([11]; 100 nM): 98%
remaining binding at 1 µM ([11]; 1000 nM): 100%
remaining binding at 0.1 µM ([12]; 100 nM): 94%
remaining binding at 1 µM ([12]; 1000 nM): 94%
remaining binding at 0.1 µM ([13]; 100 nM): 91%
remaining binding at 1 µM ([13]; 1000 nM): 86%
remaining binding at 0.1 µM ([14]; 100 nM): 100%
remaining binding at 1 µM ([14]; 1000 nM): 97%
remaining binding at 0.1 µM ([15]; 100 nM): 100%
remaining binding at 1 µM ([15]; 1000 nM): 100%
remaining binding at 0.1 µM ([16]; 100 nM): 93%
remaining binding at 1 µM ([16]; 1000 nM): 60%
remaining binding at 0.1 µM ([17]; 100 nM): 72%
remaining binding at 1 µM ([17]; 1000 nM): 87%
remaining binding at 0.1 µM ([18]; 100 nM): 100%
remaining binding at 1 µM ([18]; 1000 nM): 94%
remaining binding at 0.1 µM ([19]; 100 nM): 98%
remaining binding at 1 µM ([19]; 1000 nM): 86%
remaining binding at 0.1 µM ([20]; 100 nM): 76%
remaining binding at 1 µM ([20]; 1000 nM): 47%
remaining binding at 0.1 µM ([21]; 100 nM): 98%
remaining binding at 1 µM ([21]; 1000 nM): 82%
remaining binding at 0.1 µM ([22]; 100 nM): 100%
remaining binding at 1 µM ([22]; 1000 nM): 100%
remaining binding at 0.1 µM ([23]; 100 nM): 100%
remaining binding at 1 µM ([23]; 1000 nM): 88%
remaining binding at 0.1 µM ([24]; 100 nM): 100%
remaining binding at 1 µM ([24]; 1000 nM): 100%
remaining binding at 0.1 µM ([25]; 100 nM): 63%
remaining binding at 1 µM ([25]; 1000 nM): 100%
remaining binding at 0.1 µM ([26]; 100 nM): 81%
remaining binding at 1 µM ([26]; 1000 nM): 78%
remaining binding at 0.1 µM ([27]; 100 nM): 91%
remaining binding at 1 µM ([27]; 1000 nM): 94%
remaining binding at 0.1 µM ([28]; 100 nM): 100%
remaining binding at 1 µM ([28]; 1000 nM): 100%
remaining binding at 0.1 µM ([29]; 100 nM): 96%
remaining binding at 1 µM ([29]; 1000 nM): 81%
remaining binding at 0.1 µM ([30]; 100 nM): 95%
remaining binding at 1 µM ([30]; 1000 nM): 100%
remaining binding at 0.1 µM ([31]; 100 nM): 88%
remaining binding at 1 µM ([31]; 1000 nM): 92%
remaining binding at 0.1 µM ([32]; 100 nM): 97%
remaining binding at 1 µM ([32]; 1000 nM): 76%
remaining binding at 0.1 µM ([33]; 100 nM): 92%
remaining binding at 1 µM ([33]; 1000 nM): 39%
